Legend:
[1] = target: Serine/threonine-protein kinase mTOR (Homo sapiens, UniProt P42345); assay: Inhibition of human mTOR measured after 30 mins in presence of ATP by Lanthascreen TR-FRET assay
[2] = target: Phosphatidylinositol 4,5-bisphosphate 3-kinase catalytic subunit alpha isoform (Homo sapiens, UniProt P42336); assay: Inhibition of PI3K alpha (unknown origin)
Sequence of Phosphatidylinositol 4,5-bisphosphate 3-kinase catalytic subunit alpha isoform (P42336 whole entry, canonical isoform): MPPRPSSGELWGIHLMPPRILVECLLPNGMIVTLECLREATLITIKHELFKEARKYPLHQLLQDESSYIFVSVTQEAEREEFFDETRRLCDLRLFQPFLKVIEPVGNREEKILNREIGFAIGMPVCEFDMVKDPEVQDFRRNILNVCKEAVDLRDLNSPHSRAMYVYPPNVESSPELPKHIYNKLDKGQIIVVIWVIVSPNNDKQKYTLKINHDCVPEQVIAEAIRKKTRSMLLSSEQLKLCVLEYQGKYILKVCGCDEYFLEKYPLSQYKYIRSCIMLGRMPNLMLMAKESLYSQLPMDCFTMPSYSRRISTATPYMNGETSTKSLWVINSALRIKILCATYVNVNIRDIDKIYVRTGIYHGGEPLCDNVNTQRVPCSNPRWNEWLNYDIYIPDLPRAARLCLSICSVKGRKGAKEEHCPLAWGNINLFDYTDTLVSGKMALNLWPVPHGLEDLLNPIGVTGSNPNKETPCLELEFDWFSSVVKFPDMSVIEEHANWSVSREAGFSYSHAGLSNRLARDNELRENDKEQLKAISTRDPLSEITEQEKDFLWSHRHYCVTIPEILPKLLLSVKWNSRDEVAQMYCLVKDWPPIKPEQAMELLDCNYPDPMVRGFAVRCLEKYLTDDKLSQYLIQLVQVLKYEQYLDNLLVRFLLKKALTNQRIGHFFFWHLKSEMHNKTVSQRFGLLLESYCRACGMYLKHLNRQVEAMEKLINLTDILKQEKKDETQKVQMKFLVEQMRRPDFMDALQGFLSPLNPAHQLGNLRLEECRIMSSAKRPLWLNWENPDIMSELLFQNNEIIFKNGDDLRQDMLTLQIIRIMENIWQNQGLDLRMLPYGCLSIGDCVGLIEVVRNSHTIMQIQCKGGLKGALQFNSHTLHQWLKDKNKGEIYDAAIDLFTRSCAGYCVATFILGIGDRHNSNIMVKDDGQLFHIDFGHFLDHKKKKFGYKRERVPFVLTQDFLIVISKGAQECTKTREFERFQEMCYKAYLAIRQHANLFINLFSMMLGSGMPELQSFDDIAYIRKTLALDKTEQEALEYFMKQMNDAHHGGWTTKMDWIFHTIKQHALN

Compound | IC50 [1] | IC50 [2]
CNC(=O)Nc1ccc(-c2ncc3c(n2)N2CCOCC2CC(=O)N3)cc1 (stereo not given) | 1.58 µM | 2.51 µM
CNC(=O)Nc1ccc(-c2nc(C)c3nc4n(c3n2)CCOC4)cc1 | 5.01 µM | 5.01 µM
C[C@@]12COCCN1c1nc(-c3ccc(NC(=O)NC4CC4)cc3)ncc1N(CC1CC1)C2=O | 0.00631 µM | 0.794 µM
CNC(=O)Nc1ccc(-c2ncc3c(n2)N2CCOCC2C(=O)N3CC2CC2)cc1 (stereo not given) | 0.0316 µM | 0.02 µM
CNC(=O)Nc1ccc(-c2ncc3c(n2)N2CCOCC2C(=O)N3)cc1 (stereo not given) | 0.316 µM | 0.0316 µM

Reference: ChEMBL document CHEMBL4359925, “Rational discovery of a highly novel and selective mTOR inhibitor” (Bioorg Med Chem Lett, 2019)
